Data on four compounds can be found in patent US8741836B2, “Polypeptides” (Novo Nordisk A/S, priority 2011, dated 2014).

Structures are written as SMILES. Starred links: 1 amine or outer side, 2 acyl side, 3 side chain; linkers in the order of their positions; H or OH if unused. Positions of bridges follow the written chain, without caps; N, C: chain ends. Residues, ends and D or L forms follow the SMILES beside them. *: point of attachment. C20 diacid = O=C(O)CCCCCCCCCCCCCCCCCCC(=O)*; γGlu = O=C(O)[C@H](CCC(=O)[*:2])N[*:1]

In the assay the test system is ad libitum fed rat. As to the kind of experiment: Assay (I) efficacy testing on appetite (food intake) using an ad libitum fed rat model. The note with it: 3 nmol/kg. The format is in vivo, Sprague Dawley (SD) rats. An excerpt:
In the following examples reference is made to the following Assays: • Assay (I)—Experimental protocol for efficacy testing on appetite using an ad libitum fed rat model • ASSAY (II)a—Functional assay—Human calcitonin and amylin receptor assay • ASSAY (II)b—Functional assay—Rat calcitonin and rat amylin receptor assays • ASSAY (III)—ThT fibrillation assays for the assessment of physical stability of protein formulations • ASSAY (IV)—Determination of solubility • ASSAY (V)—Determination of binding to the human amylin receptor • ASSAY (VI)—Determination of the binding to the rat amylin receptor • ASSAY (VII)—Determination of binding to the human calcitonin receptor • ASSAY (VIII)—Determination of binding to the rat calcitonin receptor • ASSAY (IX)—pK—Determination of T½ in mini-pig • ASSAY (X)—pK—Determination of T½ in rat Assay (I)—Experimental protocol for Efficacy Testing on Appetite Using an Ad Libitum Fed Rat Model
Sprague Dawley (SD) rats from Taconic Europe, Denmark are used for the experiments. The rats have a body weight 200-250 g at the start of experiment. The rats arrive at least 10-14 days before start of experiment to allow acclimatization to experimental settings. During this period the animals are handled at least 2 times. After arrival rats are housed individually for one week in a reversed light/dark phase (meaning that lights are off during daytime and on during nighttime) […]. Since rats are normally active and eat their major part of their daily food intake during the dark period, rats are dosed in the morning right before lights are turned off. This set-up results in the lowest data variation and highest test sensitivity. The experiment is conducted in the rats' home cages and rats have free access to food and water throughout the acclimatization period and the experiment period. Each dose of derivative is tested in a group of 5-8 rats. A vehicle group of 6-8 rats is included in each set of testing. Rats are dosed once according to body weight with a 0.01-3 mg/kg solution administered intraperitoneally (ip), orally (po) or subcutaneously (sc). The time of dosing is recorded for each group. After dosing, the rats are returned to their home cages, where they then have access to food and water. The food consumption is recorded individually continuously by on-line registration or manually every hour for 7 hours, and then after 24 h and sometimes 48 h. At the end of the experimental session, the animals are euthanised.
The individual data are recorded in Microsoft excel sheets. Outliers are excluded after applying the Grubbs statistical evaluation test for outliers, and the result is presented graphically using the GraphPad Prism program.

`CC[C@H](C)[C@H](NC(=O)[C@@H]1CCCN1C(=O)CNC(=O)[C@H](Cc1ccccc1)NC(=O)[C@H](CC(N)=O)NC(=O)[C@H](CC(N)=O)NC(=O)[C@H](CO)NC(=O)[C@H](CO)NC(=O)[C@H](Cc1c[nH]cn1)NC(=O)[C@H](Cc1c[nH]cn1)NC(=O)[C@H](CC(C)C)NC(=O)[C@H](Cc1ccccc1)NC(=O)[C@H](CCC(=O)O)NC(=O)[C@H](C)NC(=O)[C@H](CC(C)C)NC(=O)[C@H](CCCNC(=N)N)NC(=O)[C@H](CCC(N)=O)NC(=O)[C@@H](NC(=O)[C@H](C)NC(=O)[C@@H]1CSSC[C@H](NC(=O)[C@H](Cc2c[nH]cn2)NC(=O)[C@H](Cc2c[nH]cn2)NC(=O)CC[C@H](NC(=O)CCCCCCCCCCCCCCCCCCC(=O)O)C(=O)O)C(=O)N[C@@H](CC(N)=O)C(=O)N[C@@H]([C@@H](C)O)C(=O)N[C@@H](C)C(=O)N[C@@H]([C@@H](C)O)C(=O)N1)[C@@H](C)O)C(=O)N[C@@H](CC(C)C)C(=O)N1CCC[C@H]1C(=O)N1CCC[C@H]1C(=O)N[C@H](C(=O)N[C@@H](CC(N)=O)C(=O)N[C@H](C(=O)NCC(=O)N[C@@H](CO)C(=O)N[C@@H](CC(N)=O)C(=O)N[C@H](C(=O)N[C@@H](Cc1ccc(O)cc1)C(N)=O)[C@@H](C)O)C(C)C)[C@@H](C)O` [Example 17, N-alpha-[(S)-4-Carboxy-4-(19-carboxynonadecanoylamino)butyryl]-His-[His1,Glu14,His17]-pramlintide] ({C20 diacid-γGlu}-HHCNTATCATQRLAEFLHHSSNNFGPILPPTNVGSNTY-NH2; disulfide 3-8): the “Food intake reduction 0-24 h 3 nmol/kg (%)” value is 40% and the “Food intake reduction 24-48 h 3 nmol/kg (%)” value is 22%.

As for `CC[C@H](C)[C@H](NC(=O)[C@@H]1CCCN1C(=O)CNC(=O)[C@H](Cc1ccccc1)NC(=O)[C@H](CC(N)=O)NC(=O)[C@H](CC(N)=O)NC(=O)[C@H](CO)NC(=O)[C@H](CO)NC(=O)[C@H](Cc1c[nH]cn1)NC(=O)[C@H](Cc1c[nH]cn1)NC(=O)[C@H](CC(C)C)NC(=O)[C@H](Cc1ccccc1)NC(=O)[C@H](CCC(=O)O)NC(=O)[C@H](C)NC(=O)[C@H](CC(C)C)NC(=O)[C@H](CCCNC(=N)N)NC(=O)[C@H](CCC(N)=O)NC(=O)[C@@H](NC(=O)[C@H](C)NC(=O)[C@@H]1CSSC[C@H](NC(=O)[C@H](CCCCN)NC(=O)CC[C@H](NC(=O)CCCCCCCCCCCCCCCCCCC(=O)O)C(=O)O)C(=O)N[C@@H](CC(N)=O)C(=O)N[C@@H]([C@@H](C)O)C(=O)N[C@@H](C)C(=O)N[C@@H]([C@@H](C)O)C(=O)N1)[C@@H](C)O)C(=O)N[C@@H](CC(C)C)C(=O)N1CCC[C@H]1C(=O)N1CCC[C@H]1C(=O)N[C@H](C(=O)N[C@@H](CC(N)=O)C(=O)N[C@H](C(=O)NCC(=O)N[C@@H](CO)C(=O)N[C@@H](CC(N)=O)C(=O)N[C@H](C(=O)N[C@@H](Cc1ccc(O)cc1)C(N)=O)[C@@H](C)O)C(C)C)[C@@H](C)O` [Example 27, N-alpha-[(S)-4-Carboxy-4-(19-carboxynonadecanoylamino)butyryl]-[Glu14,His17]-pramlintide] ({C20 diacid-γGlu}-KCNTATCATQRLAEFLHHSSNNFGPILPPTNVGSNTY-NH2; disulfide 2-7 (inferred)), the “Food intake reduction 0-24 h 3 nmol/kg (%)” value is 56% and the “Food intake reduction 24-48 h 3 nmol/kg (%)” value is 53%.

Take `CC[C@H](C)[C@H](NC(=O)[C@@H]1CCCN1C(=O)CNC(=O)[C@H](Cc1ccccc1)NC(=O)[C@H](CC(N)=O)NC(=O)[C@H](CC(N)=O)NC(=O)[C@H](CO)NC(=O)[C@H](CO)NC(=O)[C@H](Cc1c[nH]cn1)NC(=O)[C@H](Cc1c[nH]cn1)NC(=O)[C@H](CC(C)C)NC(=O)[C@H](Cc1ccccc1)NC(=O)[C@H](CCC(=O)O)NC(=O)[C@H](C)NC(=O)[C@H](CC(C)C)NC(=O)[C@H](CCCNC(=N)N)NC(=O)[C@H](CCC(N)=O)NC(=O)[C@@H](NC(=O)[C@H](C)NC(=O)[C@@H]1CSSC[C@H](NC(=O)[C@H](CCCCN)NC(=O)[C@H](CCC(=O)O)NC(=O)CC[C@H](NC(=O)CCCCCCCCCCCCCCCCCCC(=O)O)C(=O)O)C(=O)N[C@@H](CC(N)=O)C(=O)N[C@@H]([C@@H](C)O)C(=O)N[C@@H](C)C(=O)N[C@@H]([C@@H](C)O)C(=O)N1)[C@@H](C)O)C(=O)N[C@@H](CC(C)C)C(=O)N1CCC[C@H]1C(=O)N1CCC[C@H]1C(=O)N[C@H](C(=O)N[C@@H](CC(N)=O)C(=O)N[C@H](C(=O)NCC(=O)N[C@@H](CO)C(=O)N[C@@H](Cc1c[nH]cn1)C(=O)N[C@H](C(=O)N[C@@H](Cc1ccc(O)cc1)C(N)=O)[C@@H](C)O)C(C)C)[C@@H](C)O` [Example 56, N-alpha-[(S)-4-Carboxy-4-(19-carboxynonadecanoylamino)butyryl]-Glu-[Glu14,His17,His35]-pramlintide] ({C20 diacid-γGlu}-EKCNTATCATQRLAEFLHHSSNNFGPILPPTNVGSHTY-NH2; disulfide 3-8): the “Food intake reduction 0-24 h 3 nmol/kg (%)” value came to 46% and the “Food intake reduction 24-48 h 3 nmol/kg (%)” value is recorded as 21%.

Take `CC[C@H](C)[C@H](NC(=O)[C@@H]1CCCN1C(=O)CNC(=O)[C@H](Cc1ccccc1)NC(=O)[C@H](CC(N)=O)NC(=O)[C@H](CC(N)=O)NC(=O)[C@H](CO)NC(=O)[C@H](CO)NC(=O)[C@H](Cc1c[nH]cn1)NC(=O)[C@H](Cc1c[nH]cn1)NC(=O)[C@H](CC(C)C)NC(=O)[C@H](Cc1ccccc1)NC(=O)[C@H](CCC(=O)O)NC(=O)[C@H](C)NC(=O)[C@H](CC(C)C)NC(=O)[C@H](CCCNC(=N)N)NC(=O)[C@H](CCC(N)=O)NC(=O)[C@@H](NC(=O)[C@H](C)NC(=O)[C@@H]1CSSC[C@H](NC(=O)[C@H](Cc2c[nH]cn2)NC(=O)CC[C@H](NC(=O)CCCCCCCCCCCCCCCCCCC(=O)O)C(=O)O)C(=O)N[C@@H](CC(N)=O)C(=O)N[C@@H]([C@@H](C)O)C(=O)N[C@@H](C)C(=O)N[C@@H]([C@@H](C)O)C(=O)N1)[C@@H](C)O)C(=O)N[C@@H](CC(C)C)C(=O)N1CCC[C@H]1C(=O)N1CCC[C@H]1C(=O)N[C@H](C(=O)N[C@@H](CC(N)=O)C(=O)N[C@H](C(=O)NCC(=O)N[C@@H](CO)C(=O)N[C@@H](CC(N)=O)C(=O)N[C@H](C(=O)N1CCC[C@H]1C(N)=O)[C@@H](C)O)C(C)C)[C@@H](C)O` [Example 84, N-alpha-[(S)-4-Carboxy-4-(19-carboxynonadecanoylamino)butyryl]-[His1,Glu14,His17,Pro37]-pramlintide] ({C20 diacid-γGlu}-HCNTATCATQRLAEFLHHSSNNFGPILPPTNVGSNTP-NH2; disulfide 2-7 (inferred)): the “Food intake reduction 0-24 h 3 nmol/kg (%)” value amounted to 68% and the “Food intake reduction 24-48 h 3 nmol/kg (%)” value is given as 67%.
